One data set concerns AChE. Also on record: method as in PMID 11374978. To be noted: read-out: AChE inhibition IC50; cited from earlier work.
For a further data set, the system named is experimental sepsis. Also on record: method as in PMID 20157398. The settings on record: ip 1 ~ 100 mg/kg before LPS/GalN or high-dose LPS (20 mg/kg); cited from earlier work.
For data set [1] the following is noted: cited from earlier work.
Another data set concerns the target T1, CDK3/cyclin E (Homo sapiens, UniProt Q00526).
T1 construct: purchased Reaction Biology
Description: Reaction Biology kinase activity inhibition. The data set is classed as biochemical. To be noted: initial screening. The essentials:
(§1)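 Radiometric kinase activity assay using γ-^33P-ATP on a miniaturized platform, part of a panel of more than 600 protein and lipid kinases. Hits were confirmed by IC50 profiling at 5 test-compound concentrations with curve fitting.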

A further data set deals with T2, PIM1 (Homo sapiens, UniProt P11309).
T2 construct: purchased Reaction Biology
Briefly: Reaction Biology kinase activity inhibition. In kind it is biochemical. The settings on record: initial screening. The essentials:
as §1

Another data set concerns the target T3, STK21/CIT (Homo sapiens, UniProt O14578).
T3 construct: purchased Reaction Biology
Description: Reaction Biology kinase activity inhibition. The data set is classed as biochemical. To be noted: initial screening. The essentials: as §1

For the next data set, the target named is T4, Aurora B (Homo sapiens, UniProt Q96GD4).
T4 construct: purchased Reaction Biology
Briefly: Reaction Biology kinase activity inhibition. In kind it is biochemical. The settings on record: initial screening. The essentials:
as §1

In another data set the target is T5, MKK7 (MAPK9) (Homo sapiens, UniProt O14733).
T5 construct: purchased Reaction Biology
T5 sequence (O14733 2-419 limits assumed): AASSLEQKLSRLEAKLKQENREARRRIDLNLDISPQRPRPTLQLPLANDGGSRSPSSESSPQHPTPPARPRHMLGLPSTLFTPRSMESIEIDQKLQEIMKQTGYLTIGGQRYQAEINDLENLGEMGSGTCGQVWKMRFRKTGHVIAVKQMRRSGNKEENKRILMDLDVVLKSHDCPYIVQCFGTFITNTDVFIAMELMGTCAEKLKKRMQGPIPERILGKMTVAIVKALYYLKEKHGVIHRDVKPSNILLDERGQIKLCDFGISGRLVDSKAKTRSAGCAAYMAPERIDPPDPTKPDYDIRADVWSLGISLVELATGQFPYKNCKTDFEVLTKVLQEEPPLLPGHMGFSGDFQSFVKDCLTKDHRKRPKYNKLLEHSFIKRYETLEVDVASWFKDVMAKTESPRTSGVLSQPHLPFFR
Briefly: Reaction Biology kinase activity inhibition. The data set is classed as biochemical. To be noted: initial screening. The essentials:
as §1

A further data set addresses T6, CLK4 (Homo sapiens, UniProt Q9HAZ1).
T6 construct: purchased Reaction Biology
Briefly: Reaction Biology kinase activity inhibition. To be noted: initial screening. The data set is classed as biochemical. Summed up: as §1

The next data set deals with T7, PKCzeta (Homo sapiens, UniProt Q05513).
T7 construct: purchased Reaction Biology
Description: Reaction Biology kinase activity inhibition. The data set is classed as biochemical. The settings on record: initial screening. Summed up:
as §1

For data set [2], the target named is T8, CDK9 (Homo sapiens, UniProt P50750). Description: Reaction Biology kinase activity inhibition. In kind it is biochemical. Further details: purchased Reaction Biology (Malvern, PA). To be noted: activity screening, DOH at 50 μM. The text has this: The second screening was the Reaction Biology® (Malvern, PA) kinase activity inhibition tests, which screened for more than 600 protein kinases and lipid kinases, using miniaturized radioisotope-based assay platform with γ-^33P-ATP, followed by confirmation with IC50 kinase profiling service with 5 concentrations of test compound (i.e., DOH and DA) with curve fitting.

Data set [3] deals with T8, CDK9. Briefly: KINOMEscan competition binding. Also on record: purchased Eurofins DiscoverX (KINOMEscan). The method, then: Two distinct platforms were used for initial screening with 50 µM DOH vs. DMSO vehicle. The first was the Eurofins DiscoverX KINOMEscan® (Freemont, CA USA) profiling platform, which employed a proprietary active site-directed competition binding assay to quantitatively measure interactions between a test compound (i.e., DOH) and 468 human protein kinases and disease relevant mutant variants either directly (sterically) or indirectly (allosterically) to prevent a kinase binding to its immobilized substrate (ligand). The top 8 hits were subjected to secondary screening verification by DOH concentration-titration for dissociation constant (Kd). For ROCK1 and ROCK2, DA was chosen for Kd titration as well, because it is ~ 10 × higher than D in peripheral circulation due to its resistance to hydrolysis by carboxyesterase-2 (Fig. 1C).
Target sequence in this assay (P50750 whole entry): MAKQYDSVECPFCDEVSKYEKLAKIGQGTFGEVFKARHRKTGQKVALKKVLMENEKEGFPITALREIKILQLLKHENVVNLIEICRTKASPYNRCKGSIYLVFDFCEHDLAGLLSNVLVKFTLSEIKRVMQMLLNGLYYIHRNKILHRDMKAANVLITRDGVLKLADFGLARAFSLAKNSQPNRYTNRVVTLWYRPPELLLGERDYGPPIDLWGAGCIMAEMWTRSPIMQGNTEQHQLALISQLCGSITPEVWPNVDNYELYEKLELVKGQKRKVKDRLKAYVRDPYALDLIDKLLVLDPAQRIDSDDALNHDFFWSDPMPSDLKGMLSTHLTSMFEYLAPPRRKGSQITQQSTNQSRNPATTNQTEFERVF

Data set [4] relates to BOCCA and MCAO ischemic damage. Further details: method as in PMID 19801740. The settings on record: 20 mg/kg, pre or post-treatment; cited from earlier work.
For data set [5], the system named is acute thermal pain models and CINP. Further details: method as in PMID 36249788. The settings on record: cited from earlier work.
Details of data set [6]: method as in PMID 27080944, PMID 23364885, PMID 29121805. The settings on record: oral gavage dosing of AGN or D/DA; cited from earlier work.
For data set [7], the system named is adipose stem cells (ASCs). Also on record: method as in PMID 31861646. To be noted: cited from earlier work.
A further data set concerns CYP2C19 and 3A4. The settings on record: cited from earlier work.
The subject of data set [8] is methicillin-resistant Staphylococcus aureus (MRSA) sepsis. Also on record: method as in PMID 34681611. The settings on record: ip every other day 0.4, 2 and 10 mg/kg pre-treatment; cited from earlier work.
The test system of the next data set is sleep architectures. Further details: method as in PMID 28066138. The settings on record: DA 50 mg/kg, po; cited from earlier work.
Data set [9] concerns rat hypothalamic primary neuronal cells. Also on record: method as in PMID 28066138. The settings on record: cited from earlier work.
The test system of a further data set is HepG2 cells. Also on record: method as in earlier work. The settings on record: free fatty acid mixture (oleate:palmitate = 2:1); cited from earlier work.
Data set [10] has as its system pentobarbital-induced sleeping behaviors. Also on record: method as in PMID 28066138. The settings on record: cited from earlier work.
The mark [11] stands for this setting: DOH (50 µM), Data 1 and Data 2, read-out: % Enzyme Activity (relative to DMSO controls).

T6 sequence (Q9HAZ1 whole entry): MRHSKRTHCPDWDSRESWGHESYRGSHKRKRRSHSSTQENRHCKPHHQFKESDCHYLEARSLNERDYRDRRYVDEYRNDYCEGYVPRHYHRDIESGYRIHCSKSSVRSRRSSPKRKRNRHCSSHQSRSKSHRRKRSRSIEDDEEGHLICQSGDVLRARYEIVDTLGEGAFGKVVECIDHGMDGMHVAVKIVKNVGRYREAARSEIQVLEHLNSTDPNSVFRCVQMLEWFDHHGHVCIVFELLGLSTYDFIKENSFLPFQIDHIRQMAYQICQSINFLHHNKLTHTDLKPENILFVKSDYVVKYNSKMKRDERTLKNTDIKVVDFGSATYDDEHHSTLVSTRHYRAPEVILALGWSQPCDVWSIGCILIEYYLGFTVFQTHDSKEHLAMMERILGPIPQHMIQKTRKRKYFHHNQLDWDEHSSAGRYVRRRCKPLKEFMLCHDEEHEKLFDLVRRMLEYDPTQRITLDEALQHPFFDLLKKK
T1 sequence (Q00526 whole entry): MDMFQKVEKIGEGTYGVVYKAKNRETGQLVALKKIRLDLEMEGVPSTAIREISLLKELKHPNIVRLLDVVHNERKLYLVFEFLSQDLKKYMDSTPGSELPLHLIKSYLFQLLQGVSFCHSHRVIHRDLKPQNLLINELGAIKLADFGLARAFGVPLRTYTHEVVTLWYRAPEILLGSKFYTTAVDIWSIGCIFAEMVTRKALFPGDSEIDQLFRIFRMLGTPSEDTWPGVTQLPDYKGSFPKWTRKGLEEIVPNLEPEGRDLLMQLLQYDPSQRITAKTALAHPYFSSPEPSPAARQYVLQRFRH
T1 sequence (P24864 whole entry partner): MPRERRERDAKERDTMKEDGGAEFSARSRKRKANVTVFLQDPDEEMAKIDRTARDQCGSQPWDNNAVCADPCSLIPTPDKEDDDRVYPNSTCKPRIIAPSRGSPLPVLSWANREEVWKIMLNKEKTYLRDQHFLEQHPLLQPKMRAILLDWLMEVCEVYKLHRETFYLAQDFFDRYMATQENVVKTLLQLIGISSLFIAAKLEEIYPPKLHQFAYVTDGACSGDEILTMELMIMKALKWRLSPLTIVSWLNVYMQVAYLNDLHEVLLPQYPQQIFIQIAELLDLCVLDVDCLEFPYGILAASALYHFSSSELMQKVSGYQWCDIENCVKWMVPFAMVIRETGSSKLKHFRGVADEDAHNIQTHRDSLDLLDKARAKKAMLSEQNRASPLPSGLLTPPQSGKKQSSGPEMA
T3 sequence (O14578 whole entry): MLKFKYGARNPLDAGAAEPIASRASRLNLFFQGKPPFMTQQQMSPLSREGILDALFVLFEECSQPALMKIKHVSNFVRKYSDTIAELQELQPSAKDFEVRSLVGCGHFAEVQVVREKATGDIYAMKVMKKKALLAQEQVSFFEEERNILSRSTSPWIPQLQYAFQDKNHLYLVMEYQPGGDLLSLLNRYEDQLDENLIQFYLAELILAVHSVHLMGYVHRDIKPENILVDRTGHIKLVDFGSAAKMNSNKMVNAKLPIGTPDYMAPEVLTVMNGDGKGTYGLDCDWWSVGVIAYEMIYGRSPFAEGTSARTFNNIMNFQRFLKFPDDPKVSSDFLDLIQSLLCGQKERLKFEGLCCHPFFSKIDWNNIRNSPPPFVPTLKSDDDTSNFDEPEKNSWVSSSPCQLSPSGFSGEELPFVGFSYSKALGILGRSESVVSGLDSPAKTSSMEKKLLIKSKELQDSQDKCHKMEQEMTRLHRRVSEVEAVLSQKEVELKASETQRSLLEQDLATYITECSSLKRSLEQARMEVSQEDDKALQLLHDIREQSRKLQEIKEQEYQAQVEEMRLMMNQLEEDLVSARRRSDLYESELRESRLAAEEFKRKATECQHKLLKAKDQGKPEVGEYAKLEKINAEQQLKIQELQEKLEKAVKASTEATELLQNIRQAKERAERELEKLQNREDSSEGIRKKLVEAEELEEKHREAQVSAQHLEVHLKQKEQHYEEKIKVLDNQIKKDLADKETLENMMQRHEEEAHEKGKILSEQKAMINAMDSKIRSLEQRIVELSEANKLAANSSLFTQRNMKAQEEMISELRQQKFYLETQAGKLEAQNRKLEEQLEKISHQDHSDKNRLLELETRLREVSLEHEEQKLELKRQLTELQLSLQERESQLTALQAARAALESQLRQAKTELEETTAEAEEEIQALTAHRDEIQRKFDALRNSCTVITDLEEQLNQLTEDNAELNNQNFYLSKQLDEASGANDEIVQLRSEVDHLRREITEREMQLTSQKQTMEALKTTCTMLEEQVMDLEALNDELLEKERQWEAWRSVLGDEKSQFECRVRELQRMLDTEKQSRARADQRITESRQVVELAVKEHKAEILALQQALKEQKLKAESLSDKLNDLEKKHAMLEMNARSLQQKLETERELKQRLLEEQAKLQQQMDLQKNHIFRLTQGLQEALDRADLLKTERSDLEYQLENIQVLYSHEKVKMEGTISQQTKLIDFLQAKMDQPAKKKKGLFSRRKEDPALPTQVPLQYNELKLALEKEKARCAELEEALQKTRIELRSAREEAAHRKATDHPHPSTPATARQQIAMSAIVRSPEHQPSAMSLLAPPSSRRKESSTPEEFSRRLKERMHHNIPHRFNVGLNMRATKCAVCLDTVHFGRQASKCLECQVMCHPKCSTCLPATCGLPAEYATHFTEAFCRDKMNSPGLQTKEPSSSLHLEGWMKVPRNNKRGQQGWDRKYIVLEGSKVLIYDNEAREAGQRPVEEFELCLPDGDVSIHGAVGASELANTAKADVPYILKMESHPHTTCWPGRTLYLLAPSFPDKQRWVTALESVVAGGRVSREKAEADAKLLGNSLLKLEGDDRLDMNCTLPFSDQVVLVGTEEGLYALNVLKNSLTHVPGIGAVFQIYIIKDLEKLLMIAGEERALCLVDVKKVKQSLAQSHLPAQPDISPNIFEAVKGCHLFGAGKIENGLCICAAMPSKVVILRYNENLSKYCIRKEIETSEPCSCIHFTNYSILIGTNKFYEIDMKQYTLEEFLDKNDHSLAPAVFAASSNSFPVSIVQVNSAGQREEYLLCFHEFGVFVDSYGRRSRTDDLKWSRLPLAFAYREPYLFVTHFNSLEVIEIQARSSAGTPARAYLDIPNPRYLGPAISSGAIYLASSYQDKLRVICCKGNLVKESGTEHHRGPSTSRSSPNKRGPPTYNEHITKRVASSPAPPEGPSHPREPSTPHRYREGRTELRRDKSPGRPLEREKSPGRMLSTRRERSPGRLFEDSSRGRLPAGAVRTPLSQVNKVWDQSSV
T4 sequence (Q96GD4 whole entry): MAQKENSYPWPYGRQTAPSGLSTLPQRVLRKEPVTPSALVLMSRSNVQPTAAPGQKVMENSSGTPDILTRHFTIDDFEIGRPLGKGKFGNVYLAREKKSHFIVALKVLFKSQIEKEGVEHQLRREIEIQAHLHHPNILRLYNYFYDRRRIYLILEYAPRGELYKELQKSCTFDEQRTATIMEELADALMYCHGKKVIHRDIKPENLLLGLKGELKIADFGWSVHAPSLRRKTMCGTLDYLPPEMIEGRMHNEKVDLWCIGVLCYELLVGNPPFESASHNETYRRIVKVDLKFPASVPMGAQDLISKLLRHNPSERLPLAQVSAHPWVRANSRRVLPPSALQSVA
T2 sequence (P11309 whole entry): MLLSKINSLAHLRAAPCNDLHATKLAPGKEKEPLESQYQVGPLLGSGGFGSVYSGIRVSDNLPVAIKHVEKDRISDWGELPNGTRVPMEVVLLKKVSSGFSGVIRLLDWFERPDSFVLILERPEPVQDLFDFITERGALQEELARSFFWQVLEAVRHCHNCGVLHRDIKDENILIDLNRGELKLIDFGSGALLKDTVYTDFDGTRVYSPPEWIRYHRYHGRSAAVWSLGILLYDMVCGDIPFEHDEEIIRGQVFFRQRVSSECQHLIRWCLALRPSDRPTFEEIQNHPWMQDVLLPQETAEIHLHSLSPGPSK
T7 sequence (Q05513 whole entry): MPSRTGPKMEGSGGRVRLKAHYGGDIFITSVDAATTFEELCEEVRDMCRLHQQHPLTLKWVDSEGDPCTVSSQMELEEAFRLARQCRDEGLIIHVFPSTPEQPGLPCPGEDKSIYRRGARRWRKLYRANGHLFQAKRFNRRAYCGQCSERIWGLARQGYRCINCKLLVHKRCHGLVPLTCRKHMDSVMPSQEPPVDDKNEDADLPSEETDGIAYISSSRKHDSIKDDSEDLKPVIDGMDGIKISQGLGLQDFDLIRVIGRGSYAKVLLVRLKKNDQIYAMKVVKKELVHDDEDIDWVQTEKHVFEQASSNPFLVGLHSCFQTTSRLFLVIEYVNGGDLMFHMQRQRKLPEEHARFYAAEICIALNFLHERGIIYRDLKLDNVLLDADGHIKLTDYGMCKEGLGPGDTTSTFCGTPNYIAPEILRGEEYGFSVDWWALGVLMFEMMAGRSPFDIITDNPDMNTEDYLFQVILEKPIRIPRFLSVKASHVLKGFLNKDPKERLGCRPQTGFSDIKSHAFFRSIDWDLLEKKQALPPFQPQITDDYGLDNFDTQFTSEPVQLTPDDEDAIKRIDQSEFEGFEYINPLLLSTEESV

For `CC1(C)Oc2cc3oc(=O)ccc3cc2C[C@@H]1O` [DOH, decursinol], the half-inhibitory concentration (IC50) in the data set with AChE was 28 µM. Further, the “reduction of sepsis lethality ED50” value in the data set with experimental sepsis was ~ 10 mg/kg. Also, the AUCDOH/AUCtotal in data set [1] (conversion of D and DA to DOH) is 98.7%. Moreover, the Cmax in data set [1] (read-out: mean peak concentration Cmax, 10 men and 10 women, 800 mg INM176 AGN oral) was 2.48 µM. The inhibition at 50 µM at CDK3/cyclin E (DOH 50 µM) amounted to 30.3%; against PIM1 (DOH 50 µM), 38.5%; against STK21/CIT (DOH 50 µM) it was 28.3%; on Aurora B (DOH 50 µM) it was 36.2%; on MKK7 (MAPK9) (DOH 50 µM), 36.5%; on CLK4 (DOH 50 µM) it was 25.7%. Moreover, on PKCzeta (DOH 50 µM), 50 µM produced 27.1% inhibition. In addition, the “% Enzyme Activity (relative to DMSO controls)” value turned out to be 69.4% on CDK3/cyclin E (DOH (50 µM), Data 1 and Data 2); 60.3% at PIM1 (DOH (50 µM), Data 1 and Data 2); 71.1% on STK21/CIT (DOH (50 µM), Data 1 and Data 2); 63.7% at Aurora B (DOH (50 µM), Data 1 and Data 2); 61.2% at MKK7 (MAPK9) (DOH (50 µM), Data 1 and Data 2); 74.0% on CLK4 (DOH (50 µM), Data 1 and Data 2). The remaining activity at 50 µM at CDK3/cyclin E (setting [11]) was found to be 70%; on PIM1 (setting [11]), 62.7%; on STK21/CIT (setting [11]), 72.2%; at Aurora B (setting [11]), 64%; at MKK7 (MAPK9) (setting [11]), 65.9%; at CLK4 (setting [11]) it was 74.8%. The remaining activity at 50 µM at PKCzeta (setting [11]) amounted to 72.9%. The “inhibition of kinase activity” value against CDK9 [2] is “no inhibition”. Further, the kinase bound, % of control at 50 µM at CDK9 [3] (read-out: Substrate bound % Control) turned out to be 12%. Also, the equilibrium dissociation constant (Kd) at CDK9 [3] (validation Kd titration, 0.003 to 50 µM) is greater than 50 µM. For the same molecule, the “protection against ischemia stroke models” value in [4] is recorded as “failed to protect”. Moreover, the “hypothermia and sedation (ataxia)” value in [5] is recorded as “dose dependent hypothermia”. Besides, the “antinociception in hot plate and tail-flick assays” value in data set [5] (ip DOH 50 mg/kg) is reported as “replicated antinociception effects”. Moreover, the “mechanical allodynia of mice with cisplatin-neuropathy (Von Fry test)” value in [5] (ip DOH 50 mg/kg) is given as “reversed the mechanical allodynia”. In addition, in data set [5] (once-daily ip, hot plate, tail-flick and CINP mice), the “time to tolerance development” value is reported as ~ 10 days. Also, the “DOH level achievable in the blood” value in data set [6] was “double digit micromolar”.

On to `C/C=C(/C)C(=O)O[C@H]1Cc2cc3ccc(=O)oc3cc2OC1(C)C` [DA, decursinol angelate], for which the adipocyte differentiation entry in data set [7] is “significantly inhibited adipocyte differentiation”. In the data set on CYP2C19 and 3A4, the “Cyp isoforms for metabolism to DOH” value is “major human isoforms”. Moreover, the “mouse mortality and bacteremia” value in [8] is “dose-dependent decrease of mouse mortality”. Further, in the data set on sleep architectures, the “total sleep time (EEG)” value is “increased total sleep time”. Besides, in [9] (DA 0.001, 0.01 and 0.1 µg/ml ≈ 0.003, 0.03 and 0.3 µM), the “intracellular Cl- influx level” value was “increased”. In data set [9], the “protein expression of GAD65/67 and GABAA receptor subtypes” value was “increased the protein expression”. In the data set with HepG2 cells, the lipid accumulation entry is “suppressed lipid accumulation”. Also, the “sleeping time by pentobarbital (42 mg/kg)” value in data set [10] (dose-dependent) is reported as “prolonged sleeping time”. Also, the spontaneous locomotor activity entry in [10] (oral DA 10, 25 and 50 mg/kg) is reported as “markedly suppressed spontaneous locomotor activity”.

One may read the IC50 as the concentration that gives 50% inhibition. For orientation: inhibition means the change of the read-out against control, counted positive when it falls. Read a high inhibition as a strong effect. The term Kd denotes the constant that tells how readily two partners part at equilibrium. Lower therefore signals higher affinity.
